# System: S. pneumoniae ATCC 49619
# Experiment: Minimal inhibitory concentration (MIC) by broth microdilution (CLSI M7-A7)
# Format: cell-based, Streptococcus pneumoniae
# Details: Streptococcus pneumoniae, ATCC49619; cation-adjusted Mueller Hinton Broth supplemented with 3% (v/v) lysed horse blood; microdilution method
# Experimental: Minimal inhibitory concentrations (MICs; mg/l) were determined in cation-adjusted MuellerHinton Broth (supplemented with 3% (v/v) lysed horse blood for testing Streptococcus pneumoniae) by a microdilution method following the description given in “Methods for Dilution Antimicrobial Susceptibility Tests for Bacteria that Grow Aerobically”, Approved standard, 7th ed., a Clinical and Laboratory Standards Institute (CLSI) Document M7-A7, Wayne, Pa., USA, 2006.
row,SMILES,MIC [µg/mL]
1,"C#CCCC(=O)NCc1ccc(-c2ccncc2)c2cc(NC(=O)NCC)ncc12 [Example 69, pent-4-ynoic acid [3-(3-ethyl-ureido)-5-pyridin-4-yl-isoquinolin-8-ylmethyl]-amide]",0.25
2,"CCNC(=O)Nc1cc2cccc(CNC(=O)OC(C)C)c2cn1.Cl [Example 30, [3-(3-ethyl-ureido)-isoquinolin-8-ylmethyl]-carbamic acid isopropyl ester hydrochloride]",4
3,"C#CCC(=O)NCc1cccc2cc(NC(=O)NCC)ncc12 [Example 1, but-3-ynoic acid [3-(3-ethyl-ureido)-isoquinolin-8-ylmethyl]-amide]",2
4,"C#CCOC(=O)NCc1ccc(-c2ccc(C(N)=O)cc2)c2cc(NC(=O)NCC)ncc12.Cl [Example 141, [5-(4-carbamoyl-phenyl)-3-(3-ethyl-ureido)-isoquinolin-8-ylmethyl]-carbamic acid prop-2-ynyl ester hydrochloride]",0.25
5,"C#CCOC(=O)NCc1ccc(-c2ccnc(C#N)c2)c2cc(NC(=O)NCC)ncc12 [Example 128, [5-(2-cyano-pyridin-4-yl)-3-(3-ethyl-ureido)-isoquinolin-8-ylmethyl]-carbamic acid prop-2-ynyl ester]",1
6,"C#CCOC(=O)NCc1ccc(-c2cccc(C(N)=O)c2)c2cc(NC(=O)NCC)ncc12.Cl [Example 136, [5-(3-carbamoyl-phenyl)-3-(3-ethyl-ureido)-isoquinolin-8-ylmethyl]-carbamic acid prop-2-ynyl ester hydrochloride]",2
7,"CCNC(=O)Nc1cc2c(-c3ccnc(C)c3)ccc(CNC(=O)C3CC3)c2cn1 [Example 154, cyclopropanecarboxylic acid [3-(3-ethyl-ureido)-5-(2-methyl-pyridin-4-yl)-isoquinolin-8-ylmethyl]-amide]",0.5
8,"CCNC(=O)Nc1cc2cccc(CNC(=O)c3cn[nH]n3)c2cn1 [Example 20, 2H-[1,2,3]triazole-4-carboxylic acid [3-(3-ethyl-ureido)-isoquinolin-8-ylmethyl]-amide]",1
9,"CCNC(=O)Nc1cc2c(-c3cc(C)nc(C)c3)ccc(CNC(=O)OCCOC)c2cn1 [Example 116, [5-(2,6-dimethyl-pyridin-4-yl)-3-(3-ethyl-ureido)-isoquinolin-8-ylmethyl]-carbamic acid 2-methoxy-ethyl ester]",1
10,"CCNC(=O)Nc1cc2c(-c3ccnc(C)c3)ccc(CNC(C)=O)c2cn1 [Example 153, N-[3-(3-ethyl-ureido)-5-(2-methyl-pyridin-4-yl)-isoquinolin-8-ylmethyl]-acetamide]",1
11,"CCNC(=O)Nc1cc2cccc(CNC(=O)c3cccnc3)c2cn1 [Example 10, N-[3-(3-ethyl-ureido)-isoquinolin-8-ylmethyl]-nicotinamide]",4
12,"CCNC(=O)Nc1cc2c(-c3ccncc3)ccc(CNC(=O)C3CC3)c2cn1 [Example 65, cyclopropanecarboxylic acid [3-(3-ethyl-ureido)-5-pyridin-4-yl-isoquinolin-8-ylmethyl]-amide]",0.25
13,"CCNC(=O)Nc1cc2c(-c3ccncc3)ccc(CNC(=O)CC)c2cn1 [Example 59, N-[3-(3-ethyl-ureido)-5-pyridin-4-yl-isoquinolin-8-ylmethyl]-propionamide]",0.5
14,"CCNC(=O)Nc1cc2c(-c3ccncc3)ccc(CNC(=O)CCCN(C)C(=O)OC(C)(C)C)c2cn1 [Example 62, (3-{[3-(3-ethyl-ureido)-5-pyridin-4-yl-isoquinolin-8-ylmethyl]-carbamoyl}propyl)-methyl-carbamic acid tert-butyl ester]",1
15,"CCNC(=O)Nc1cc2c(-c3ccncc3)ccc(CNC(=O)OC[C@H]3CC[C@H](CN)CC3)c2cn1.Cl [Example 101, trans-[3-(3-ethyl-ureido)-5-pyridin-4-yl-isoquinolin-8-ylmethyl]-carbamic acid 4-(aminomethyl)-(cyclohexylmethyl) ester hydrochloride]",2
16,"C#CCOC(=O)NCc1ccc(-c2ccc(N)nc2)c2cc(NC(=O)NCC)ncc12.Cl [Example 131, [5-(6-amino-pyridin-3-yl)-3-(3-ethyl-ureido)-isoquinolin-8-ylmethyl]-carbamic acid prop-2-ynyl ester hydrochloride]",0.5
17,"C#CC(=O)NCc1ccc(-c2ccnc(C)c2)c2cc(NC(=O)NCC)ncc12 [Example 155, propynoic acid [3-(3-ethyl-ureido)-5-(2-methyl-pyridin-4-yl)-isoquinolin-8-ylmethyl]-amide]",0.5
18,"CCNC(=O)Nc1cc2c(-c3ccnnc3)ccc(CNC(=O)OC(C)(C)C)c2cn1 [Example 124, [3-(3-ethyl-ureido)-5-pyridazin-4-yl-isoquinolin-8-ylmethyl]-carbamic acid tert-butyl ester]",0.5
19,"CCNC(=O)Nc1cc2cccc(CNC(=O)OCC)c2cn1.Cl [Example 24, [3-(3-ethyl-ureido)-isoquinolin-8-ylmethyl]-carbamic acid ethyl ester hydrochloride]",4

row,SMILES,MIC [µg/mL]
1,"CCNC(=O)Nc1cc2c(-c3ccncc3)ccc(CNC(=O)CCC3CC3)c2cn1 [Example 130, 3-cyclopropyl-N-[3-(3-ethyl-ureido)-5-pyridin-4-yl-isoquinolin-8-ylmethyl]-propionamide]",0.5
2,"CCNC(=O)Nc1cc2c(-c3ccncc3)ccc(CNC(=O)Cc3c[nH]cn3)c2cn1 [Example 60, N-[3-(3-ethyl-ureido)-5-pyridin-4-yl-isoquinolin-8-ylmethyl]-2-(1H-imidazol-4-yl)-acetamide]",8
3,"CCNC(=O)Nc1cc2cccc(CNC(=O)OCC3CC3)c2cn1.Cl [Example 28, [3-(3-ethyl-ureido)-isoquinolin-8-ylmethyl]-carbamic acid cyclopropylmethyl ester hydrochloride]",4
4,"CCNC(=O)Nc1cc2c(-c3ccncc3)ccc(CNC(=O)OCCCN3CCOCC3)c2cn1 [Example 110, [3-(3-ethyl-ureido)-5-pyridin-4-yl-isoquinolin-8-ylmethyl]-carbamic acid 3-morpholin-4-yl-propyl ester]",2
5,"CCNC(=O)Nc1cc2c(-c3ccncc3)ccc(CNC(=O)CO)c2cn1 [Example 61, N-[3-(3-ethyl-ureido)-5-pyridin-4-yl-isoquinolin-8-ylmethyl]-2-hydroxy-acetamide]",4
6,"C#CCOC(=O)NCc1ccc(-c2cccc(CNC(C)=O)c2)c2cc(NC(=O)NCC)ncc12.Cl [Example 132, {5-[3-(acetylamino-methyl)-phenyl]-3-(3-ethyl-ureido)-isoquinolin-8-ylmethyl}-carbamic acid prop-2-ynyl ester hydrochloride]",4
7,"CCNC(=O)Nc1cc2c(-c3ccncc3)ccc(CNC(=O)OCC3CC3)c2cn1.Cl [Example 84, [3-(3-ethyl-ureido)-5-pyridin-4-yl-isoquinolin-8-ylmethyl]-carbamic acid cyclopropylmethyl ester hydrochloride]",0.5
8,"CCNC(=O)Nc1cc2c(-c3ccnc(O)c3)ccc(CNC(=O)OC)c2cn1 [Example 168, [3-(3-ethyl-ureido)-5-(2-hydroxy-pyridin-4-yl)-isoquinolin-8-ylmethyl]-carbamic acid methyl ester]",8
9,"CCNC(=O)Nc1cc2cccc(CNC(=O)c3ccncc3)c2cn1 [Example 2, N-[3-(3-ethyl-ureido)-isoquinolin-8-ylmethyl]-isonicotinamide]",2
10,"CCNC(=O)Nc1cc2c(-c3ccnc(OCC)c3)ccc(CNC(=O)OC)c2cn1 [Example 166, [5-(2-ethoxy-pyridin-4-yl)-3-(3-ethyl-ureido)-isoquinolin-8-ylmethyl]-carbamic acid methyl ester]",2
11,"CCNC(=O)Nc1cc2c(F)ccc(CNC(=O)OCCOC)c2cn1 [Example 151, [3-(3-ethyl-ureido)-5-fluoro-isoquinolin-8-ylmethyl]-carbamic acid 2-methoxy-ethyl ester]",2
12,"C#CCCC(=O)NCc1cccc2cc(NC(=O)NCC)ncc12 [Example 17, pent-4-ynoic acid [3-(3-ethyl-ureido)-isoquinolin-8-ylmethyl]-amide]",8
13,"CCNC(=O)Nc1cc2c(-c3ccnc(N)c3)ccc(CNC(=O)OCCOC)c2cn1 [Example 115, [5-(2-amino-pyridin-4-yl)-3-(3-ethyl-ureido)-isoquinolin-8-ylmethyl]-carbamic acid 2-methoxy-ethyl ester]",2
14,"CCNC(=O)Nc1cc2c(-c3cc(F)ncc3F)ccc(CNC(=O)OC)c2cn1.Cl [Example 191, [5-(2,5-difluoro-pyridin-4-yl)-3-(3-ethyl-ureido)-isoquinolin-8-ylmethyl]-carbamic acid methyl ester hydrochloride]",2
15,"C#CCOC(=O)NCc1ccc(F)c2cc(NC(=O)NCC)ncc12 [Example 150, [3-(3-ethyl-ureido)-5-fluoro-isoquinolin-8-ylmethyl]-carbamic acid prop-2-ynyl ester]",1
16,"CCNC(=O)Nc1cc2c(-c3ccncc3)ccc(CNC(=O)CCN)c2cn1.Cl [Example 51, 3-amino-N-[3-(3-ethyl-ureido)-5-pyridin-4-yl-isoquinolin-8-ylmethyl]-propionamide hydrochloride]",8
17,"C#CCCOC(=O)NCc1cccc2cc(NC(=O)NCC)ncc12.Cl [Example 40, [3-(3-ethyl-ureido)-isoquinolin-8-ylmethyl]-carbamic acid but-3-ynyl ester hydrochloride]",4
18,"CCNC(=O)Nc1cc2c(-c3ccncc3)ccc(CNC(=O)CC(C)C)c2cn1 [Example 66, N-[3-(3-ethyl-ureido)-5-pyridin-4-yl-isoquinolin-8-ylmethyl]-3-methyl-butyramide]",0.25
19,"CCNC(=O)Nc1cc2cccc(CNC(=O)C(C)C)c2cn1 [Example 18, N-[3-(3-ethyl-ureido)-isoquinolin-8-ylmethyl]-isobutyramide]",4

# — US8889676B2, “3-ureidoisoquinolin-8-yl derivatives” (Actelion Pharmaceuticals Ltd., priority 2011, dated 2014)
